# Source: patent publication US8481597B2, “Use of (-) (3-trihalomethylphenoxy) (4-halophenyl) acetic acid derivatives for treatment of insulin resistance, type 2 diabetes, hyperlipidemia and hyperuricemia” (Metabolex, Inc., priority 1999, dated 2013)
# Legend:
# CYP2C9 = CYP2C9 (Homo sapiens, UniProt P11712)
# C57BL/6J ob/ob mice = assay: Glucose lowering of (±) and (−) halofenate analogs in ob/ob mice (Example 12); assay type: in vivo; conditions: for time points with significantly reduced plasma glucose concentrations: 150 mg/kg oral single dose
# CYP2C9, sequence (P11712 whole entry): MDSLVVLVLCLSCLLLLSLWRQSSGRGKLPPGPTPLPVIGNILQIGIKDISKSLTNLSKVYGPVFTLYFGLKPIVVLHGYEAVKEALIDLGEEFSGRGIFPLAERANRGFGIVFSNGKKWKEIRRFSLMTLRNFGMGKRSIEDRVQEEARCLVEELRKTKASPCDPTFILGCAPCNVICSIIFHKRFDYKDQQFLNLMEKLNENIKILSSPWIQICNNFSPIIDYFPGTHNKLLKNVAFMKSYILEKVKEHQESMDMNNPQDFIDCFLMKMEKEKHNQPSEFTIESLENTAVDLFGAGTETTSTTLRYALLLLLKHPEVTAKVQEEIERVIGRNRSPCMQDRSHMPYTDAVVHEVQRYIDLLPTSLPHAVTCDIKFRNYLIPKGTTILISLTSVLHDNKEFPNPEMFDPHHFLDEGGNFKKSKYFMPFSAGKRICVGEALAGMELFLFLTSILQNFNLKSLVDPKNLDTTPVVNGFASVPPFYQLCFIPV
smiles,measurement,setting,value
"Nc1ccc(S(=O)(=O)Nc2ccnn2-c2ccccc2)cc1 [SFZ, sulfaphenazole, reference compound]",4-OH TB Production,CYP2C9,BQL
same,"% Inhibition (Tolbutamide, CYP2C9)","CYP2C9; both, human, microsomes",~100%
NC(=O)COC(=O)C(Oc1cccc(C(F)(F)F)c1)c1ccc(Cl)cc1 (racemic) [(±)Analog 37],time points with significantly lowered plasma glucose concentrations,C57BL/6J ob/ob mice; 125 mg/kg oral once a day,54 h
"O=C(NCCOC(=O)C(Oc1cccc(C(F)(F)F)c1)c1ccc(Cl)cc1)c1ccccc1 (single isomer, unassigned; (-)) [(−)Analog 36]",time points with significantly reduced plasma glucose concentrations,C57BL/6J ob/ob mice,6 h
"CN(C)C(=O)COC(=O)C(Oc1cccc(C(F)(F)F)c1)c1ccc(Cl)cc1 (single isomer, unassigned; (-)) [(−)Analog 38]",time points with significantly reduced plasma glucose concentrations,C57BL/6J ob/ob mice,6 h
CN(C)CCOC(=O)C(Oc1cccc(C(F)(F)F)c1)c1ccc(Cl)cc1 (racemic) [(±)Analog 35],6 hours Glucose,"C57BL/6J ob/ob mice; 125 mg/kg oral once a day, 6 hours after first dose",319.6 ± 26.7 mg/dL
same,30 hours Glucose,"C57BL/6J ob/ob mice; 125 mg/kg oral once a day, 6 hours after second dose",276.8 ± 17.6 mg/dL
same,54 hours Glucose,"C57BL/6J ob/ob mice; 125 mg/kg oral once a day, 6 hours after third dose",286.2 ± 31.5 mg/dL
same,Predose Glucose,"C57BL/6J ob/ob mice; baseline before dosing, group later given 125 mg/kg oral once a day",387.0 ± 18.0 mg/dL
"CC(=O)NCCOC(=O)C(Oc1cccc(C(F)(F)F)c1)c1ccc(Br)cc1 (single isomer, unassigned; (-)) [(−)Analog 29]",time points with significantly reduced plasma glucose concentrations,C57BL/6J ob/ob mice,6 h
"NC(=O)COC(=O)C(Oc1cccc(C(F)(F)F)c1)c1ccc(Cl)cc1 (single isomer, unassigned; (-)) [(−)Analog 37]",time points with significantly reduced plasma glucose concentrations,C57BL/6J ob/ob mice,6 h
